Where two headings read alike, the source gives them in different places.
Columns and labels:
[1] = Plasma concentration determination test after oral administration; format: in vivo; conditions: male beagle dogs, gelatin capsule, 20 mg/kg in terms of free form, hypochlorhydria conditions, three dogs
Method: The Compound (1) in free form (type II crystal), the type III crystal of Compound (1) with one equivalent of succinic acid, and the type I crystal of Compound (1) with one equivalent of sorbic acid obtained in the examples were tested for plasma concentrations in male beagle dogs after oral administration under hypochlorhydria conditions.
In order to select three male beagle dogs for the test, plasma concentrations were determined in five male beagle dogs under hypochlorhydria conditions after administration in a solution form and administration in a capsule-filled form. Three dogs with larger differences in AUClast (area under the plasma concentration-time curve from 0 hours after administration to the point at which the final concentration can be calculated by the linear trapezoidal method before Tmax and by the log-trapezoidal method after Tmax) and Cmax (maximum plasma concentration) between the administration in the solution form and the administration in the capsule-filled form were selected. Subsequently, tests were conducted to determine plasma concentrations in them after oral administration of the Compound (1) in free form (type II crystal), the type III crystal of Compound (1) with one equivalent of succinic acid, and the type I crystal of Compound (1) with one equivalent of sorbic acid in capsule-filled forms. The following procedures were employed for the preparation of a liquid dosage, capsule filling, and animal experiments.
Compound (1) in free form was dissolved in a 20% HP-β-CD solution containing 0.1N hydrochloric acid to prepare a solution of 20 mg/5 mL. Compound (1) in free form (type II crystal), the type III crystal of Compound (1) with one equivalent of succinic acid, and the type I crystal of Compound (1) with one equivalent of sorbic acid were each filled into a gelatin capsule at 20 mg/kg in terms of the molecular weight of Compound (1) (free form).
The male beagle dogs selected for the study were fasted starting between 11:00 a.m. to 12:00 p.m. on the day before Compound (1) was administered and fed after blood was collected 8 hours after the administration of the compound. The dogs were not allowed to drink water from 30 minutes before to 2 hours after the administration of the compound, but were allowed to drink freely at other time.
Intravenous administration of atropine (atropine sulfate injection 0.5 mg “Fuso”) at a dose of 0.02 mg/kg was followed by intramuscular administration of pentagastrin at a dose of 0.01 mg/kg 30 minutes prior to the administration of the compound. Thirty minutes after the administration of atropine, the dogs were orally force-fed a capsule filled with the compound, encouraged to self-swallow the capsule with 5 mL of distilled water, and further orally force-fed 50 mL of distilled water using a catheter. Alternatively, the compound dissolved in liquid dosage was administered orally via a catheter at a dose of 20 mg/5 mL/kg, and the catheter was immediately rinsed with 10 mL of distilled water.
Pentagastrin was again intramuscularly administered at 0.01 mg/kg 15 minutes and 1 hour after the administration of the compound.
Before and after (0.25, 0.5, 1, 2, 4, 6, 8, and 24 hours after) the administration, the person in charge of collecting blood held the dog's forelimb to distend the blood vessel using a clothespin or the like. Then, the blood collection site was disinfected with alcohol cotton, and about 0.2 mL of blood was collected using a heparinized syringe and needle. After the blood was drawn, the puncture site was pressed with a cotton pad to adequately stop bleeding. The collected blood samples were ice-cooled, and plasma was isolated by centrifugation as soon as possible. The isolated plasma was immediately frozen on dry ice and then stored frozen in a freezer set at −80° C. […]

[2] = Solid stability test (4 weeks of storage at 80° C., closed system; HPLC); format: physicochemical; conditions: for Chemical purity after 4 weeks of storage at 80° C. / Solid stability (result in words): 80° C. (closed system), 4 weeks; for Chemical purity after 4 weeks of storage at 80° C.: glass bottle; for Chemical purity after 4 weeks of storage at 80° C. / Chemical purity before storage: HPLC; for Solid stability (result in words): related substances by HPLC; for Change (chemical purity): after 4 weeks at 80° C. versus before storage; for Chemical purity before storage: UV 220
Method: The solid stability of the type II crystal of Compound (1) in free form, the type III crystal of Compound (1) in free form, the type VII crystal of Compound (1) in free form, and the type VIII crystal of Compound (1) in free form obtained in the examples, reference example, and comparative example were evaluated after 4 weeks of storage by the following procedure. • Storage conditions: 80° C. (closed system) (HIFLEX (high-temperature storage chamber manufactured by ETAC)) • Storage period: 4 weeks • Storage volume: Approximately 30 mg • Storage container: Glass bottle
Changes in the mass of the related substances (the amounts of detected substances other than Compound (1)) were analyzed by HPLC according to the following method. Approximately 8 mg of each sample was weighed and dissolved in I mL of a chloroform-methanol mixture (1:1 v/v). Fifty μL of this solution was measured and diluted with 950 μL of an acetonitrile-water mixture (7:3), and 5 μL of the resulting solution was accurately measured and used as the sample for the analysis.
The mass of the related substances in the sample solution was determined by HPLC analysis. The instrument, including data processing, was handled in accordance with the method and procedure indicated for each instrument. • Column: InertSustainSwift C18 (2.1×50 mm, 1.9 μm) manufactured by GL Sciences • UV detection: […] • Column temperature: 40° C. • Flow rate: 0.3 mL/min • Sample cooler: 10° C. • Sample concentration: 0.1 mg/mL • Mobile phase A: 10 mmol/L phosphate buffer (pH 6.8)/acetonitrile (95:5) mixture • Mobile phase B: Acetonitrile • The gradients are shown in Table 4.
The solid stability of the type III crystal of Compound (1) with succinic acid, the type I crystal of Compound (1) with citric acid, the type IV crystal of Compound (1) with citric acid, the type I crystal of Compound (1) with sorbic acid, and the type I crystal of Compound (1) with phosphoric acid obtained in the examples, reference example, and comparative examples were evaluated after 4 weeks of storage. The evaluation method, storage, and measurement conditions were as described in Test Example 1.

[3] = Dynamic vapor sorption (DVS) test; format: physicochemical; conditions: 25° C.; for Hygroscopicity (result in words): 5 to 95% RH; for Weight increase under 95% relative humidity: 95% RH
Method: Vapor sorption tests were performed using the type II crystal of Compound (1) in free form, the type III crystal of Compound (1) in free form, the type VII crystal of Compound (1) in free form, and the type VIII crystal of Compound (1) in free form obtained in the examples, reference example, and comparative example.
Vapor sorption tests were conducted under the following conditions.
Approximately 10 mg of the sample was filled into a specialized quartz holder to continuously measure and record the weight of the sample at each humidity was under the following conditions. The instrument, including data processing, was handled in accordance with the method and procedure indicated for each instrument. • Instrument: VTI-SA+(manufactured by TA Instruments) • Drying temperature: 60° C. • Heating rate: 1° C./min • Equilibration of drying: Confirmation of no more than 0.01 wt % decrease in 5 minutes within a period not exceeding 300 minutes • Measurement temperature: 25° C. • Equilibration of humidification: Confirmation of no more than 0.01 wt % increase in 5 minutes within a period not exceeding 120 minutes • Relative humidity program: Increase from 5 to 95% RH in increments of 5% RH, and decrease from 95% to 5% RH in increments of 5% RH. • Changes in the weight over the range of the measurement conditions obtained in these tests are shown in FIGS. 9 through 12.
Vapor sorption tests were performed using the type III crystal of Compound (1) with succinic acid, the type I crystal of Compound (1) with citric acid, the type IV crystal of Compound (1) with citric acid, the type I crystal of Compound (1) with sorbic acid, and the type I crystal of Compound (1) with phosphoric acid obtained in the examples, reference example, and comparative examples.
Vapor sorption tests were conducted under the same conditions as in Test Example 2.

[4] = male, beagle, dog, plasma, po, 20 mg/kg

Structure (SMILES) | AUC(0-t) [1, 4] [µM·h] | Cmax [1, 4] [nM] | tmax ([1]; male, beagle, dog, plasma, po, 20 mg/kg, read-out: tmax) [h] | Chemical purity after 4 weeks of storage at 80° C. [2] [%] | Solid stability (result in words) [2] | Change (chemical purity) [2] | Chemical purity before storage [2] [%] | Hygroscopicity (result in words) [3] | Weight increase under 95% relative humidity [3] [%] | AUClast [1] [µM·h] | Cmax [1] [nM] | tmax [1] [h]
C#Cc1c(-c2cnc3ccccc3c2)c2c(N)ncnc2n1C12CCC(NC(=O)c3cnc(C)cn3)(CC1)C2 [N-(4-(4-amino-6-ethynyl-5-(quinolin-3-yl)-7H-pyrrolo[2,3-d]pyrimidin-7-yl)bicyclo[2.2.1]heptan-1-yl)-5-methylpyrazine-2-carboxamide] | 13 ± 4 | 1260 ± 90 | 4 | – | – | – | – | – | – | – | – | –
C#Cc1c(-c2cnc3ccccc3c2)c2c(N)ncnc2n1C12CCC(NC(=O)c3cnc(C)cn3)(CC1)C2 [Type I crystal of Compound (1) with sorbic acid] [N-(4-(4-amino-6-ethynyl-5-(quinolin-3-yl)-7H-pyrrolo[2,3-d]pyrimidin-7-yl)bicyclo[2.2.1]heptan-1-yl)-5-methylpyrazine-2-carboxamide] | – | – | – | 99.72 | extremely stable crystals with almost no increase in the related substances | −0.02% | 99.74 | hardly hygroscopic | 0.26 | 18.1 ± 13.1 | 1680 ± 880 | 6.0 ± 2.0
C#Cc1c(-c2cnc3ccccc3c2)c2c(N)ncnc2n1C12CCC(NC(=O)c3cnc(C)cn3)(CC1)C2 [Type III crystal of Compound (1) with succinic acid] [N-(4-(4-amino-6-ethynyl-5-(quinolin-3-yl)-7H-pyrrolo[2,3-d]pyrimidin-7-yl)bicyclo[2.2.1]heptan-1-yl)-5-methylpyrazine-2-carboxamide] | – | – | – | 99.63 | extremely stable crystals with almost no increase in the related substances | +0.01% | 99.62 | hardly hygroscopic | 0.28 | 25.1 ± 8.4 | 2240 ± 750 | 5.3 ± 1.2
